Target: mammalian target of rapamycin (mTOR) (Homo sapiens, UniProt P42345)
Assay: Invitrogen Z'-LYTE kinase assay, five concentrations
Assay type: biochemical

- IC50: 708 nM
Structure (SMILES): C/C=C(/C=O)[C@@H](CC=O)CC(=O)OCCc1ccc(O)cc1 [oleocanthal]

— paper PMC5051273 (Phytotherapy research : PTR, 2015)
